# From publication PMC6934184, “Selective DNA-PKcs inhibition extends the therapeutic index of localized radiotherapy and chemotherapy” (The Journal of Clinical Investigation, 2019)
# Biological target: T1, CDK3/cyclin E1 (Homo sapiens, UniProt Q00526)
# T1 construct: purchased Thermo Fisher Scientific (Life Technologies) SelectScreen
# Test: SelectScreen LanthaScreen
# Format: binding
# Conditions: 1 µM
# How it was run: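 NU5455 was profiled across the SelectScreen Broad panel of kinase activity and binding assays. Z'LYTE reactions such as CSF1R ran at apparent Km ATP, while the Adapta CAMK1 assay used ATP listed as 10. Values are given as percent.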
# T1 sequence (Q00526 whole entry): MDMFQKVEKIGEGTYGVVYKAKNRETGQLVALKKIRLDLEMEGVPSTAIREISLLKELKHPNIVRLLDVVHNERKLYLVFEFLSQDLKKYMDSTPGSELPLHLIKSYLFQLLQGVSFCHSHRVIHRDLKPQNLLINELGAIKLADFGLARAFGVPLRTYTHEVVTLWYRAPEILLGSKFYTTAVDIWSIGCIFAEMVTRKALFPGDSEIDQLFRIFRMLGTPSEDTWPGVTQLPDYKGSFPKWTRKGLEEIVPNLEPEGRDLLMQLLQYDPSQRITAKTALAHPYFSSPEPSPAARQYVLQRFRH
# T1 sequence (P24864 whole entry partner): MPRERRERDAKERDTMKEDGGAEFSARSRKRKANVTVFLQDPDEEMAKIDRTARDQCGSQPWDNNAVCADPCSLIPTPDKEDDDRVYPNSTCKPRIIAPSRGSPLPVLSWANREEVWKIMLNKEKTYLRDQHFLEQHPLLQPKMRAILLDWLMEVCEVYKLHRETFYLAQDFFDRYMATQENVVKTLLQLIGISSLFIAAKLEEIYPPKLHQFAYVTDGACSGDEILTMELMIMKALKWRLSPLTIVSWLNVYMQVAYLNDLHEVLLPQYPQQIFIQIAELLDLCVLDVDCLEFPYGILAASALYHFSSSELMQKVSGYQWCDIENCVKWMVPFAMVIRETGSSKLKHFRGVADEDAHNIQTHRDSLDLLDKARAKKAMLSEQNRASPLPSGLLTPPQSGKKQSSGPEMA
structure (smiles),measurement,value
CN(C(=O)CN1CCOCC1)c1ccc2sc3c(-c4cccc5c(=O)cc(N6CC7CCC(C6)O7)oc45)cccc3c2c1 [NU5455],% displacement,1.9%
